Type in all cases: in vivo
Series [1] relates to DS male mice. Put plainly: Anti-pentylenetetrazol activity. To be noted: compound given orally 60 minutes prior to 125 mg/kg s.c. pentylenetetrazol, complete protection against mortality, observed 2 hours. The text has this: 1. Anti-pentylenetetrazol activity
The convulsions were disregarded.

Series [2] relates to DS male mice. The series is described as follows: Taming activity (inhibition of electroshock-induced fighting). Conditions: compound administered 60 minutes prior, inhibition of fighting responses, 5 pairs. As to the method:
(§1) This test was measured on DS male mice.
These pairs of mice were selected in the morning and used for drug test in the afternoon. The test compound was administered to both mice of the pairs 60 minutes prior to the experiment. Results were obtained as the mean percentage of inhibition of fighting responses in a group of 5 pairs and shown by ED50 [Tedeschi, et al.: J. Pharmacol Exp. Thev., 125, 28-34 (1959)].

Series [3] deals with DS male mice. Put plainly: Rotarod performance activity. Conditions: fall from rod within less than 2 minutes. As for the experimental part:
3. Rotarod performance activity:
as §1
The mouse was put on a scraped rod of wood, 3 cm in diameter, turning at the rate of five rotations per minute. The mice that could remain on the rod for 3 or more minutes in successive trails were selected and placed in a group of 10 mice for each dose. If the mouse fell down from the rod within less than 2 minutes, the test compound was considered to be effective. Results were shown by ED50 [Dunham, et al.: J. Am. Pharm. Assoc., 46, 208 (1957)].
In general terms: In the rotarod test animals must keep their balance on a rotating rod.

SMILES strings stand for the structures.

As for `CN(C(=O)CNC(=O)CN)c1ccc(Cl)cc1C(=O)c1ccccc1` [Compound 1, 2-benzoyl-4-chloro-N-methyl-N^α -glycyl-glycinanilide], in the series on DS male mice [1], the “Anti-pentylenetetrazol activity, ED50” value is 1.0 mg/kg.
As for `CN(C(=O)CNC(=O)CN)c1ccc(Cl)cc1C(=O)c1ccccc1Cl.O` [Compound 2, 2-o-chlorobenzoyl-4-chloro-N-methyl-N^α -glycyl-glycinanilide hydrate], the “Anti-pentylenetetrazol activity, ED50” value with DS male mice [1] came to 0.58 mg/kg. In the series on DS male mice [2], the “Taming activity ED50” value was found to be 3.0 mg/kg.
As to `CN(C(=O)CNC(=O)CN)c1ccc(Cl)cc1C(=O)c1ccccc1F.Cl` [Compound 3, 2-o-fluorobenzoyl-4-chloro-N-methyl-N^α -glycyl-glycinanilide hydrochloride], the “Anti-pentylenetetrazol activity, ED50” value with DS male mice [1] came to 0.33 mg/kg. Besides, the “Taming activity ED50” value in the series on DS male mice [2] was found to be 1.6 mg/kg. Moreover, the “Rotarod performance ED50” value with DS male mice [3] was 17.0 mg/kg.
With `CNC1=Nc2ccc(Cl)cc2C(c2ccccc2)=[N+]([O-])C1` [Compound 4, Chlordiazepoxide, reference compound], in the series on DS male mice [3], the “Rotarod performance ED50” value was found to be 50.0 mg/kg.

The record behind these values is patent US4076704A, “Dipeptide derivatives and their production” (Shionogi & Co., Ltd., priority 1974, dated 1978).
